Assay results published in PubChem BioAssay AID248 (DTP/NCI, 2004).
Toxic doses and inconclusive results are not listed. Cut-off read from the data, not from the text of the source: active = T/C of 150% or more; inactive = T/C below 125%.

Tested on: L1210 leukemia ip in BDF1 mice, survival T/C
Test: NCI In Vivo Anticancer Drug Screen. Data for tumor model L1210 Leukemia (intraperitoneal) in B6D2F1 (BDF1) mice
Settings: endpoint: mean survival time, higher = longer survival
How it was run: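 Survival endpoint. Drug-treated group vs vehicle group, expressed as T divided by C. Tumor passaged by transplantation.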

[1] = dose: 100.0 mg/kg/injection, schedule: Q04DX003 (ip), vehicle: saline
[2] = dose: 200.0 mg/kg/injection, schedule: Q04DX003 (ip), vehicle: saline
[3] = dose: 400.0 mg/kg/injection, schedule: Q04DX003 (ip), vehicle: saline
[4] = dose: 100.0 mg/kg/injection, schedule: Q01DX001 (ip), vehicle: saline
[5] = dose: 200.0 mg/kg/injection, schedule: Q01DX001 (ip), vehicle: saline
[6] = dose: 400.0 mg/kg/injection, schedule: Q01DX001 (ip), vehicle: saline
[7] = dose: 25.0 mg/kg/injection, schedule: Q04DX003 (ip), vehicle: Klucel (hydroxypropylcellulose) (HPC)
[8] = dose: 50.0 mg/kg/injection, schedule: Q04DX003 (ip), vehicle: Klucel (hydroxypropylcellulose) (HPC)
[9] = dose: 100.0 mg/kg/injection, schedule: Q04DX003 (ip), vehicle: Klucel (hydroxypropylcellulose) (HPC)
[10] = dose: 100.0 mg/kg/injection, schedule: Q01DX001 (ip), vehicle: Klucel (hydroxypropylcellulose) (HPC)
[11] = dose: 400.0 mg/kg/injection, schedule: Q01DX001 (ip), vehicle: Klucel (hydroxypropylcellulose) (HPC)
[12] = dose: 100.0 mg/kg/injection, schedule: Q01DX009 (ip), vehicle: Klucel (hydroxypropylcellulose) (HPC)
[13] = dose: 200.0 mg/kg/injection, schedule: Q01DX009 (ip), vehicle: Klucel (hydroxypropylcellulose) (HPC)
[14] = dose: 400.0 mg/kg/injection, schedule: Q01DX009 (ip), vehicle: Klucel (hydroxypropylcellulose) (HPC)
[15] = dose: 200.0 mg/kg/injection, schedule: Q04DX003 (ip), vehicle: Klucel (hydroxypropylcellulose) (HPC)
[16] = dose: 400.0 mg/kg/injection, schedule: Q04DX003 (ip), vehicle: Klucel (hydroxypropylcellulose) (HPC)
[17] = dose: 200.0 mg/kg/injection, schedule: Q01DX001 (ip), vehicle: Klucel (hydroxypropylcellulose) (HPC)

Measured: T/C

Cc1cc(OC(=O)Nc2ccccc2)ccc1Cl
inactive: dose: 100.0 mg/kg/injection, schedule: Q04DX002 (ip), vehicle: saline + alcohol 100 % of control | dose: 200.0 mg/kg/injection, schedule: Q04DX002 (ip), vehicle: saline + alcohol 100 % of control | dose: 400.0 mg/kg/injection, schedule: Q04DX002 (ip), vehicle: saline + alcohol 96 % of control

CC/C=C(CC)/C(CC)=C(/C#N)CC
inactive: [1] 108 % of control | [2] 93 % of control | [3] 98 % of control

COc1ccccc1CC=O
inactive: [4] 102 % of control | [5] 103 % of control | [6] 97 % of control

CC(=O)Nc1ccccc1C[P+](c1ccccc1)(c1ccccc1)c1ccccc1
inactive: [7] 97 % of control | [8] 98 % of control | [9] 100 % of control

COc1ccc2c(c1)c(CC(=O)O)c(C)n2C(=O)c1ccc(Cl)cc1
inactive: dose: 50.0 mg/kg/injection, schedule: Q01DX001 (ip), vehicle: saline 88 % of control | [4] 95 % of control | [5] 95 % of control | [6] 93 % of control

Clc1ccccc1C(=Nc1ccccc1)C(=Nc1ccccc1)c1ccccc1Cl
inactive: dose: 12.5 mg/kg/injection, schedule: Q01DX001 (ip), vehicle: Klucel (hydroxypropylcellulose) (HPC) 106 % of control | dose: 25.0 mg/kg/injection, schedule: Q01DX001 (ip), vehicle: Klucel (hydroxypropylcellulose) (HPC) 102 % of control | [7] 90 % of control | dose: 50.0 mg/kg/injection, schedule: Q01DX001 (ip), vehicle: Klucel (hydroxypropylcellulose) (HPC) 106 % of control | [8] 92 % of control | [10] 88 % of control | [9] 87 % of control | [11] 90 % of control

O=C(Nc1ccccc1Cl)OC/C=C/c1ccccc1
inactive: [12] 103 % of control | dose: 100.0 mg/kg/injection, schedule: Q04DX002 (ip), vehicle: Klucel (hydroxypropylcellulose) (HPC) 88 % of control | [13] 96 % of control | dose: 200.0 mg/kg/injection, schedule: Q04DX002 (ip), vehicle: Klucel (hydroxypropylcellulose) (HPC) 88 % of control | [14] 108 % of control | dose: 400.0 mg/kg/injection, schedule: Q04DX002 (ip), vehicle: Klucel (hydroxypropylcellulose) (HPC) 100 % of control

CCCCc1ccc(-n2c(C)c(COC(=O)NC)c(COC(=O)NC)c2C)cc1
inactive: dose: 3.12 mg/kg/injection, schedule: Q01DX009 (ip), vehicle: Klucel (hydroxypropylcellulose) (HPC) 122 % of control | dose: 6.25 mg/kg/injection, schedule: Q01DX009 (ip), vehicle: Klucel (hydroxypropylcellulose) (HPC) 122 % of control

COc1ccc2c(c1)CCC1(C)CC(C)C(=O)C=C21 (stereo not drawn)
inactive: [9] 92 % of control | [15] 91 % of control | [16] 92 % of control

CC(=O)C1(O)Cc2c(O)c3c(c(O)c2C(OC2CC(N)C(O)C(C)O2)C1)C(=O)c1ccccc1C3=O (stereo not drawn)
inactive: dose: 0.1 mg/kg/injection, schedule: Q01DX009 (ip), vehicle: saline 119 % of control | dose: 0.8 mg/kg/injection, schedule: Q01DX009 (ip), vehicle: saline 92 % of control

CCN(CC)Cc1cc(Nc2cc(OC)cc3cccnc23)ccc1O
inactive: dose: 10.0 mg/kg/injection, schedule: Q01DX001 (ip), vehicle: saline 111 % of control | dose: 19.0 mg/kg/injection, schedule: Q01DX001 (ip), vehicle: saline 110 % of control | dose: 38.0 mg/kg/injection, schedule: Q01DX001 (ip), vehicle: saline 100 % of control

OCC1OC(n2cnc3c2ncn2nnnc32)C(O)C1O (stereo not drawn)
inactive: dose: 100.0 mg/kg/injection, schedule: Q01DX005 (ip), vehicle: saline 100 % of control | dose: 200.0 mg/kg/injection, schedule: Q01DX005 (ip), vehicle: saline 110 % of control

CCOC(=O)c1cnc2ccc(OC)cc2c1
inactive: dose: 50.0 mg/kg/injection, schedule: Q01DX009 (ip), vehicle: saline + alcohol 111 % of control | dose: 100.0 mg/kg/injection, schedule: Q01DX009 (ip), vehicle: saline + alcohol 93 % of control | [1] 96 % of control | dose: 200.0 mg/kg/injection, schedule: Q01DX009 (ip), vehicle: saline + alcohol 98 % of control | [2] 105 % of control | dose: 400.0 mg/kg/injection, schedule: Q01DX009 (ip), vehicle: saline + alcohol 93 % of control | [3] 94 % of control

Cc1cccc(CNC(=O)NCCCl)c1C
inactive: [10] 100 % of control | [17] 97 % of control | [11] 95 % of control

CCOC(=O)c1cc(/C=C/c2ccccc2)[nH]c(=O)c1C#N
inactive: [12] 98 % of control | [9] 95 % of control | [13] 97 % of control | [15] 93 % of control | [14] 98 % of control | [16] 90 % of control

CCOC(=O)c1cnn(C(N)=S)c1N
inactive: dose: 50.0 mg/kg/injection, schedule: Q01DX009 (ip), vehicle: saline with Tween-80 95 % of control | dose: 100.0 mg/kg/injection, schedule: Q01DX009 (ip), vehicle: saline with Tween-80 98 % of control | dose: 100.0 mg/kg/injection, schedule: Q04DX003 (ip), vehicle: saline with Tween-80 102 % of control | dose: 200.0 mg/kg/injection, schedule: Q04DX003 (ip), vehicle: saline with Tween-80 105 % of control | dose: 400.0 mg/kg/injection, schedule: Q04DX003 (ip), vehicle: saline with Tween-80 96 % of control

Cc1ccc([N+](=O)[O-])cc1NC(=O)Nc1ccc(C(=O)O)cc1
inactive: [12] 90 % of control | [13] 98 % of control | [14] 104 % of control

Cc1c[n+](=O)c(C)cn1[O-]
inactive: [4] 97 % of control | [5] 100 % of control | [6] 103 % of control

CCC1=C(c2ccccc2)OS(=O)(=O)NC1=O
inactive: [1] 97 % of control | [2] 97 % of control | [3] 109 % of control

O=S(=O)(CCO)c1ccc2ccccc2c1
inactive: [10] 101 % of control | [9] 101 % of control | [17] 98 % of control | [15] 97 % of control | [11] 98 % of control | [16] 105 % of control
